# According to paper PMC3909264, “A Novel Acylaminoimidazole Derivative, WN1316, Alleviates Disease Progression via Suppression of Glial Inflammation in ALS Mouse Model” (PLoS ONE, 2014):
# Counter-ions that a name gives are not always drawn.
# How the values were obtained:
# Assay type in all cases: cell-based, human
# [1] = test system: Nrf2 signaling pathway in SH-SY5Y cells; experiment: Nrf2-regulated gene expression (RT-PCR, Western blot); settings: 10 µM, within 3 h
# Procedure: Total RNA was extracted from cells using the TRIzol reagent (Invitrogen). Isolated total RNA was purified using the SV Total RNA Isolation System (Promega) according to the manufacturer’s instruction. RT-PCR was performed with QIAGEN onestep RT-PCR kit (QIAGEN). The housekeeping peptidylprolyl isomerase A (PPIA) gene was used as an internal control. PCR primers specific to each gene are as follows: ATF3, 5′-[…]-3′, and 5′-[…]-3′ (268 bp); GCLM, 5′-[…]-3′, and 5′-[…]-3′ (367 bp); HO-1, 5′-[…]-3′, and 5′-[…]-3′ (348 bp); NQO1, 5′-[…]-3′, and 5′-[…]-3′ (298 bp); Nrf2, 5′-[…]-3′, and 5′-[…]-3′ (263 bp); p21/CDKN1A, 5′-[…]-3′, and 5′-[…]-3′ (201 bp); p62/SQSTM1, 5′-[…]-3′, and 5′-[…]-3′ (330 bp); PPIA, 5′-[…]-3′, and 5′-[…]-3′ (184 bp). Amplified products were electrophoretically resolved by a 2.0% agarose gel, stained with ethidium bromide, and photographed under ultraviolet light.
# SH-SY5Y cells (3×10^5 cells) were washed twice with ice-cold PBS and incubated in 1 ml of ice-cold 10% trichloroacetic acid for 30 min. Cells were centrifuged at 22,000×g for 15 min at 4°C and lysed by pipetting in 80 µl of 9 M urea containing 2% Triton X-100 and 1% dithiothreitol. After the addition of 20 µl of 10% lithium dodecyl sulfate and 2 µl of 2 M Tris base, cell lysates were sonicated until their viscosity disappeared. […]
# [2] = test system: total GSH in differentiated SH-SY5Y cells; experiment: Measurement of intracellular glutathione (GSH/GSSG-Glo); settings: 1–20 µM, 8 h
# Procedure: Differentiated SH-SY5Y cells were treated with various concentrations of WN1316 (1–20 µM) or vehicle control (DMSO). After 8 h incubation, the cellular oxidized (GSSG) and reduced glutathione (GSH) levels were measured using the GSH/GSSG-Glo™ Assay kit (Promega) according to the manufacturer’s instructions. GSH and GSSG levels were normalized to protein concentrations.
# HeLa cells = experiment: Detection of intracellular ROS, •OH and 4-HNE after oxidative insult; settings: 10 µM, 8 h, then menadione or FeSO4/H2O2 1 h
# Procedure: HeLa cells (ATCC, CCL-2) cultured on poly-L-lysine-coated coverslips were treated with WN1316 (10 µM) or vehicle (DMSO) for 8 h and incubated with 10 µM H2DCF-DA for 30 min. Cells were then exposed to 60 µM menadione for 1 h. Confocal fluorescence images were obtained using Zeiss LSM 700 confocal microscope.
# To detect the hydroxyl radical (•OH), we used hydroxyphenyl fluorescein (HPF) as a specific probe. In brief, HeLa cells were treated with WN1316 (10 µM) or vehicle (DMSO) for 8 h and then incubated with 100 µM HPF for 30 min at 37°C in Hanks’s buffer (Invitrogen). After washing with phosphate-buffered saline (PBS), the reaction buffer (0.1 mM FeSO4, 0.2 mM H2O2) was added, and cells were incubated for 1 h at 37°C to generate •OH. Confocal fluorescence images were obtained using the lambda mode of Zeiss LSM 510 Meta confocal microscope and analytical software.
# HeLa cells cultured on poly-L-lysine-coated coverslips were treated with 10 µM WN1316 or DMSO for 8 h, and then incubated in fresh medium containing 60 µM menadione for 1 h. Cells were fixed in 0.1% glutaraldehyde/4% paraformaldehyde/PBS for 10 min, rinsed three times with PBS, and permeabilized with 0.1% Triton-X-100 for 15 min. […]
# [3] = test system: differentiated SH-SY5Y cells; experiment: Anti-oxidative stress-induced neuronal cell death (AOND) analysis, AlamarBlue cell viability
# Procedure: Human neuroblastoma SH-SY5Y cells (ATCC, CRL-2266) were grown in Dulbecco’s modified Eagle’s medium (DMEM) supplemented with 10% fetal bovine serum (HyClone, Thermo Fisher Scientific Inc.), 100 U/ml penicillin, and 100 µg/ml streptomycin at 37°C in 5% CO2. For differentiation, SH-SY5Y cells were seeded at a density of 0.75×10^4 cells per well in 96-well plates (Primaria, BD Falcon) for 1 day, and cultured in the medium containing 10 µM all-trans retinoic acid for additional 5 days.
# […] Then, the cells were exposed to various concentrations of cytotoxins, including oxidative stressors [menadione, 10 to 80 µM for 4 to 6 h; α-naphthoquinone, 12.5 µM for 4 h; 6-hydroxydopamine (6-OHDA), 400 µM for 4 h], protein kinase inhibitor (staurosporine, 25 µM for 6 h) and phosphatase inhibitor (okadaic acid, 1 µM for 6 h), in fresh medium. Cell viability was measured by AlamarBlue assay (Invitrogen) as described previously.
smiles,measurement,setting,value
"Cc1cc(C)c(N(C)CC(=O)Nc2nc(-c3ccccn3)c[nH]2)c(C)c1 [WN1316, 2-[mesityl(methyl)amino]-N-[4-(pyridin-2-yl)-1H-imidazol-2-yl] acetamide trihydrochloride]","mRNA of Nrf2-regulated genes (Nrf2, ATF3, HO-1, GCLM, NQO1, p21, p62)",[1],increased
same,total GSH level,[2],upregulation of total GSH level
same,level of intracellular •OH and lipid peroxidation,HeLa cells,markedly reduced their levels
same,pre-treatment time required for AOND activity,"[3]; 6 µM WN1316, then 60 µM menadione 4 h",> 8 h
same,concentration that militates against cytoprotection,"[3]; 8 h treatment, then 60 µM menadione 4 h",> 20 µM
same,cytoprotection against oxidative stress-induced cell death,"[3]; compound 24 h, then 60 µM menadione 4 h, compared with mother compound CPN-9",marked cytoprotection
same,selectivity of protection against various cytotoxins,"[3]; menadione, α-naphthoquinone, 6-OHDA vs staurosporine, okadaic acid, 8 h pretreatment",greatest protection against oxidative stress-induced damage
